Values quoted from earlier work in patent US20130177609A1, “Compositions and Methods for Increasing Bioavailability of Topical Ophthalmic Drugs” (priority 2008, published 2013).

settings: cited from earlier work

Structure (SMILES) | Approximate Solubility in Water [µg/mL]
CC(C)NCC(O)COc1ccc(CCOCC2CC2)cc1 (stereo not drawn) [betaxolol] | 450
Brc1c(NC2=NCCN2)ccc2nccnc12 [brimonidine] | 1500
Nc1c(CC(=O)O)cccc1C(=O)c1ccc(Br)cc1 [bromfenac] | 13
C[C@@H]1C[C@H]2[C@@H]3CCC4=CC(=O)C=C[C@]4(C)[C@@]3(F)[C@@H](O)C[C@]2(C)[C@@]1(O)C(=O)CO [dexamethasone] | 9
CCc1cccc2c3c([nH]c12)C(CC)(CC(=O)O)OCC3 (stereo not drawn) [etodolac] | 16
CC(C)OC(=O)CCC/C=C\C[C@@H]1[C@@H](CC[C@@H](O)CCc2ccccc2)[C@H](O)C[C@@H]1O [latanoprost] | 52
CC(C)(C)NC[C@H](O)COc1cccc2c1CCCC2=O [levobutonol] | 250
NC(=O)Cc1cccc(C(=O)c2ccccc2)c1N [nepafenac] | 20 to 50
CN1C(C(=O)Nc2ccccn2)=C(O)c2ccccc2S1(=O)=O [piroxicam] | 30
